# Where two headings read alike, the source gives them in different places.
# Key:
# [1] = target: T1, ERK2[2-360(p-T185/p-Y187)]-Avi (Homo sapiens, UniProt P28482); assay: Biochemical assay (HTRF competition assay); assay type: binding; settings: HTRF competition with Example 15 probe, overnight at RT; read-out: Biochemical qualified AC50
# T1 construct: 400 pM ERK2[2-360(p-T185/p-Y187)]-Avi was added to the plate
# Experimental: The competition assays were performed at RT in a 384-well white polystyrene, flat bottom plate (Greiner #784075) using a final reaction volume of 15 μL and the following assay buffer conditions: 50 mM MOPS, pH 7.2, 10 mM MgCl2, 0.5 mM TCEP, 0.01% Triton-X-100. 75 nL of a 10 mM compound solution in DMSO or 100% DMSO (12 point titration, final concentration: 50 μM-300 pM; final DMSO: 0.5%) was added using an acoustic liquid handler (Echo, Beckman Coulter) to wells containing 7.5 μL of 1-(6-((R)-3-(1-(5-chloro-1-((tetrahydro-2H-pyran-4-yl)methyl)-1H-indole-3-carbonyl)-4-(4-fluorophenyl)piperidine-4-carboxamido)pyrrolidin-1-yl)-6-oxohexyl)-3,3-dimethyl-5-sulfo-2-((1E,3E)-5-((E)-1,3,3-trimethyl-5-sulfoindolin-2-ylidene)penta-1,3-dien-1-yl)-3H-indol-1-ium (Example 15); 7.5 μL 400 pM SA-Tb (Cisbio, 610SATLB) and 400 pM ERK2[2-360(p-T185/p-Y187)]-Avi was added to the plate and incubated overnight at RT. HTRF signal was measured using a microplate reader (PheraStar, BMG Labtech) with excitation and emission wavelengths of […], respectively. The inhibitor dose-response curves were analyzed from the HTRF ratio signal using normalized IC50 regression curve fitting with control-based normalization.
# [2] = target: T2, nanobit-large-bit-ERK2 and nanobit-small-bit-PEA15 in WM793 cells (Homo sapiens, UniProt P28482); assay: NanoBiT assay; assay type: cell-based; settings: WM793 nanobit stable cell line, overnight incubation; read-out: NanoBiT qualified absolute AC50
# T2 construct: expressed in transfected cells
# T2 sequence (P28482 whole entry): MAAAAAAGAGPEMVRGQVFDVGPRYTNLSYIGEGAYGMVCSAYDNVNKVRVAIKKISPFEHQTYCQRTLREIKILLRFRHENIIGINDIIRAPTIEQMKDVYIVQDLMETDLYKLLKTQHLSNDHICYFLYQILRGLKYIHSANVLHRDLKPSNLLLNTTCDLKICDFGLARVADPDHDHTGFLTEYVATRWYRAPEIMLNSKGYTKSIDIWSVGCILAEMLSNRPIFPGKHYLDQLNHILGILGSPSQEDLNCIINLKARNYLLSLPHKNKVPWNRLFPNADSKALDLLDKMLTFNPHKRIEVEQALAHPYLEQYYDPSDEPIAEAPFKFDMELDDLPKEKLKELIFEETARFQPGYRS
# Experimental: (§1) Cancer cell media was prepared by adding 500 mL of RPMI (ThermoFisher cat ##22400-089) and 10% Fetal Bovine Serum (Gibco) for WM793 cells (ATCC Cat #CRL-2806, RRID: CVCL 8787) and F12K (Thermo Fisher cat #21127-022, 500 mL; or 21127-030, 10×500 mL)+10% FBS for PC3 (ATCC CRL-1435) cells. The entire media with supplements was filter sterilized through a 0.4 μm bottle top filter system. Cancer cell lines were detached from traditional cell culture flasks by washing three times with 1×PBS and adding an appropriate amount of 0.25% TrypLE™ Express Enzyme (1×), no phenol red (ThermoFisher cat #12604013) to create a thin layer over the cells. Trypsin was neutralized with media containing serum and proceeded to count the cells.
# A nanobit stable cell line was generated using WM793 cells with nanobit-large-bit-ERK2 and nanobit-small-bit-PEA15. […] In a biological safety cabinet, cells were seeded using a sterilized small stainless steel tipped cassette on a Multi-drop Combi. Between different cell lines, the tubing of the cassette was flushed with 1× sterile PBS for 10 s. Alternatively, cells can be seeded using a Multi-flow located within a Hepa filtered robotics room using either a sterilized small sapphire jewel tipped cassette and the peristatic pump, or the attached syringe pump, depending on volume of plates per cell line needed. The plates were placed in an incubator set at 37° C., with 5% CO2 and 95% relative humidity. A 10-point, 3-fold serial dilution of compounds was prepared in 100% DMSO on a liquid handling robot with a 10 mM top concentration. 90 nl/well was dispensed in three assay plates/1 compound source plate, with the highest concentration at 30 μM. After addition of compound was complete, the plates were placed into an incubator at 37° C., with 5% CO2 and 95% relative humidity for overnight. Luminescence was captured on a plate luminometer such as an Envision or View Lux to measure Day 0 time point both select cell lines. LUM plus, gain 3500, 0.1 s and focal height 12.5 [mm] on PheraStar reader. The raw data was extracted from the instrument and normalized all fields containing test compounds to the average of all wells containing DMSO alone as neutral control. From this value, the percent growth inhibition was calculated for each compound. Dose response curves and inhibitory IC50s were generated by graphing the normalized data values against the compound concentration using either a program such as GraphPad™ or Excel Fit.
# [3] = tested on: WM793 cells; assay: Cell proliferation assay (CellTiter-Glo); assay type: cell-based; settings: 3 d, read-out: Cell proliferation qualified AC50
# Experimental: as §1
# After counting the cells, the concentration of the cell solution was adjusted to seed a total of 750 cells per well in 50 μL of complete media into 384-well tissue culture treated plates. In a biological safety cabinet, cells were seeded using a sterilized small stainless steel tipped cassette on a Multi-drop Combi. Between different cell lines, the tubing of the cassette was flushed with 1× sterile PBS for 10 seconds. Alternatively, cells can be seeded using a Multi-flow located within a Hepa filtered robotics room using either a sterilized small sapphire jewel tipped cassette and the peristatic pump, or the attached syringe pump, depending on volume of plates per cell line needed. The plates were placed in an incubator set at 37° C., with 5% CO2 and 95% relative humidity. A 10-point, 3-fold serial dilutions of compounds in 100% DMSO was prepared on a liquid handling robot with a 10 mM top concentration. 100 nL/well in three assay plates/1 compound was dispensed to source plate, with the highest concentration at 20 μM. After addition of compound was complete, plates were placed into an incubator at 37° C., with 5% CO2 and 95% relative humidity for 3 d. An adequate volume of CellTiter-Glo® (Promega #G7571) detection reagent was pre-warmed to RT or in a 37° C. H2O bath. 25 μL of the reagent was added to each well using either a Multi-drop Combi or MultiFlo and incubate at RT for at least 15 min. Luminesce was captured on a plate luminometer such as an Envision or View Lux to measure Day 0 time point both select cell lines. LUM plus, gain 3500, 0.1 s and focal height 12.5 mm on PheraStar reader. At Day 3, an adequate volume of CellTiter-Glo® detection reagent was pre-warmed at RT or in a 37° C. H2O bath. A total of 25 μL of the reagent was added to each well using either a Multi-drop Combi or MultiFlo and incubate at RT for at least 15 min. Luminesce was captured on a plate luminometer such as an Envision or View Lux to measure Day 3 time point both select cell lines. LUM plus, gain 3500, 0.1 s and focal height 12.5 mm on PheraStar reader. Raw data was extracted from the instrument and all fields containing test compounds were normalized to the average of all wells containing DMSO alone from Day 3 as neutral control and Day 0 starting numbers. From this value, percent growth inhibition of each compound was calculated. Dose response curves and growth inhibitory IC50s were generated by graphing the normalized data values against the compound concentration using a program such as GraphPad™ or Excel Fit.
# [4] = tested on: WM793 BRAFV600E tumor xenograft; assay: Anti-tumor activity and tolerability in WM793 BRAFV600E tumor xenograft in nude rats; assay type: in vivo; settings: per os
# Experimental: Female RNU rats (Charles River, 4-5 weeks of age) were acclimatized into animal facility and pretreated with 100 mg/kg cyclophosphamide IP at 10 ml/kg 24 hrs prior to tumor implant. Nude rats were subcutaneously implanted on the right side with WM793 BRAF^V600E tumors via fragments (20-40 mg) from a previously passaged tumor with sterile techniques under isoflurane anesthesia using a 10 gauge trocar (n=4/group). Body weights were monitored at least once a week and calculated as (BWcurrent−BWinitial)/(BWinitial)×100%. After 1-3 weeks when palpable tumors developed, tumor volumes were monitored at least once a week by caliper measurements. Tumor volumes (mm^3) were calculated as (length×width×width)/2. Rats were randomized and selected for study based on tumor sizes (100-200 mm^3) and appropriate health conditions. Compounds of Formula I, formulated in either 20% HPBCD at 5 mg/ml or 20% HPBCD at 2.5 mg/ml were dosed at 10 ml/kg per os. Animals were euthanized based on poor health conditions, tumor volumes exceeded 2500 mm^3, or have reached the end of study. Regression % was calculated by 100×ΔT/Tinitial if ΔT<0, in which ΔT is the change of tumor volume.
# T1 sequence (P28482 2-360 limits assumed): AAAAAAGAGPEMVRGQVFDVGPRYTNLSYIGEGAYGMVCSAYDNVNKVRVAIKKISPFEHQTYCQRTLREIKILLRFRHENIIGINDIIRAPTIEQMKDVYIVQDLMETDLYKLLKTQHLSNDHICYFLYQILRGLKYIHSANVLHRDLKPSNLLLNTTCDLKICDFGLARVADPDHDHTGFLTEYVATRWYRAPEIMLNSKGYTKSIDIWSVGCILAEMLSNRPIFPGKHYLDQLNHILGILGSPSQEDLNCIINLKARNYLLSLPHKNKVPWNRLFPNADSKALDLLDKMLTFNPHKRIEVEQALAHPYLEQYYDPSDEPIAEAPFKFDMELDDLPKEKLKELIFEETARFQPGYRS
Structure (SMILES),AC50 [1],AC50 [2],AC50 [3],Percent body weight change following first dose / tolerability [4],"anti-tumor activity (tumor volume) ([4]; 22 days, dose not given)","AC50 ([3]; Homo sapiens, WM793, 72 h)",anti-tumor activity (tumor volume) with holiday break ([4]; 50 mg/kg bid for 5 days with 2 day break),anti-tumor activity (tumor volume) ([4]; 50 mg/kg bid for 22 days)
"CC(C)OC1CCC(C2CN(C(=O)N3CC[C@@](C(=O)N[C@H]4CC[C@H](C(=O)O)C[C@@H]4C)(c4ccc(F)cc4)C[C@@H]3C)c3cc(F)ccc32)CC1 (stereo partly drawn) [Example 4, (1S,3S,4S)-4-((2S,4S)-1-(6-fluoro-3-((1R,4S)-4-isopropoxycyclohexyl)indoline-1-carbonyl)-4-(4-fluorphenyl)-2-methylpiperidine-4-carboxamido)-3-methylcyclohexane-1-carboxylic acid]",0.47 nM,20 nM,3 nM,well tolerated,regression,–,–,–
"CCc1c(C[C@H]2CC[C@H](OC3CCOCC3)CC2)c2ccc(F)cc2n1C(=O)N1CCC(C(=O)N[C@H]2CC[C@H](C(=O)O)C[C@@H]2C)(c2ccc(F)cc2)CC1 [Example 5, (1S,3S,4S)-4-(1-(2-ethyl-6-fluoro-3-(((1r,4S)-4-((tetrahydro-2H-pyran-4-yl)oxy)cyclohexyl)methyl)-1H-indole-1-carbonyl)-4-(4-fluorophenyl)piperidine-4-carboxamido)-3-methylcyclohexane-1-carboxylic acid]",0.7 nM,66 nM,–,well tolerated,–,24 nM,"tumor regression, which is maintained",tumor regression
"CCc1c(C[C@H]2CC[C@H](OC(C)C)CC2)c2ccc(F)cc2n1C(=O)N1CCC(C(=O)N[C@H]2CC[C@H](C(=O)O)C[C@@H]2C)(c2ccc(F)cc2)CC1 [Example 2, (1S,3S,4S)-4-(1-(2-ethyl-6-fluoro-3-(((1r,4S)-4-isopropoxycyclohexyl)methyl)-1H-indole-1-carbonyl)-4-(4-fluorophenyl)piperidine-4-carboxamido)-3-methylcyclohexane-1-carboxylic acid]",< 0.28 nM,190 nM,110 nM,–,–,–,–,–
CC(C)O[C@H]1CC[C@H](Cn2c(C=O)c(C(=O)N3CCC(C(=O)N[C@H]4CC[C@H](C(=O)O)C[C@@H]4C)(c4ccc(F)cc4)CC3)c3cc(Cl)ccc32)CC1 [Example 11h],< 0.28 nM,54 nM,–,–,–,120 nM,–,–
"Cc1c(C[C@H]2CC[C@H](OC(C)C)CC2)c2ccc(F)cc2n1C(=O)N1CCC(C(=O)N[C@H]2CC[C@H](C(=O)O)C[C@@H]2C)(c2ccc(F)cc2)CC1 [Example 1, (1S,3S,4S)-4-(1-(6-fluoro-3-(((1r,4S)-4-isopropoxycyclohexyl)methyl)-2-methyl-1H-indole-1-carbonyl)-4-(4-fluorophenyl)piperidine-4-carboxamido)-3-methylcyclohexane-1-carboxylic acid]",0.33 nM,100 nM,110 nM,–,–,–,–,–
CCc1c(C[C@H]2CC[C@H](OC3CCOCC3)CC2)c2ccc(F)cc2n1C(=O)N1CCC(C(=O)N[C@H]2CC[C@H](C(=O)O)C[C@@H]2C)(c2ccc(Cl)nc2)CC1 [Example 1k],0.48 nM,250 nM,–,–,–,33 nM,–,–
"CC(C)O[C@H]1CC[C@H](C2CN(C(=O)N3CC[C@@](C(=O)N[C@H]4CC[C@H](C(=O)O)C[C@@H]4C)(c4ccc(F)cc4)C[C@@H]3C)c3cc(F)ccc32)CC1 (single isomer, unassigned) [Example 4c]",3.9 nM,1200 nM,–,–,–,410 nM,–,–
"C[C@H]1C[C@@H](C(=O)O)CC[C@@H]1NC(=O)[C@@]1(c2ccc(F)cc2)CCN(C(=O)n2c3c(c4ccc(F)cc42)C(C2CCOCC2)OCC3)[C@@H](C)C1 (single isomer, unassigned) [Example 10]",< 0.28 nM,280 nM,–,–,–,40 nM,–,–
Cc1c(CC2CCC(OC(C)C)CO2)c2ccc(F)cc2n1C(=O)N1CC[C@@](C(=O)N[C@H]2CC[C@H](C(=O)O)C[C@@H]2C)(c2ccc(F)cc2)C[C@@H]1C (some centres unmarked) [Example 1i],< 0.28 nM,31 nM,–,–,–,15 nM,–,–
CCc1c(CC2CCOCC2)c2ccc(F)cc2n1C(=O)N1CCC(C(=O)N[C@H]2CC[C@H](C(=O)O)C[C@@H]2C)(c2ccc(F)cc2)CC1 [Example 1h],< 0.28 nM,55 nM,–,–,–,16 nM,–,–

# Source: patent US20250092036A1, “COMPOUNDS AND COMPOSITIONS FOR MODULATING THE ACTIVITY OF ERK” (Novartis AG, priority 2023, published 2025)
